From ChEMBL document CHEMBL4732023, “Using NMR to identify binding regions for N and C-terminal Hsp90 inhibitors using Hsp90 domains” (RSC Med Chem, 2021)
≈ marks a conversion by molar mass, not a printed value. Calls of active or inactive are those of the source. The calls are words filed in the database; no cut-off is given here. Where a SMILES comes first, the peptide text is derived from it. [ ]: non-standard residue; d: D form. dAla(4-thiazolyl) = N[C@H](Cc1cscn1)C(=O)O; dDip = N[C@@H](C(=O)O)C(c1ccccc1)c1ccccc1; NMeV = CN[C@H](C(=O)O)C(C)C

Assays:
[1] = target: T1, Heat shock protein HSP90 (Homo sapiens, UniProt P07900+P08238); assay: Binding affinity to recombinant His6-tagged HSP90 C-domain (unknown origin) (553 to 732 residues) expressed in Escherichia coli BL21 (DE3) (DNAY) cells assessed as dissociation constant by 15N-1H TROSY-HSQC NMR spectroscopy
[2] = target: T1, Heat shock protein HSP90; assay: Binding affinity to HSP90 C-terminal domain (unknown origin) by biochemical assay; assay type: protein assay
[3] = target: T1, Heat shock protein HSP90; assay: Binding affinity to recombinant His6-tagged HSP90 C-domain (unknown origin) (553 to 732 residues) expressed in Escherichia coli BL21 (DE3) (DNAY) cells assessed as chemical shift perturbation at protein to compound ratio of 1:1.6 by 15N-1H TROSY-HSQC NMR spectroscopy
[4] = Solubility of compound in water; assay type: physicochemical; conditions: buffer

For `NCCCC[C@@H]1NC(=O)[C@H](Cc2ccccc2)NC(=O)[C@H](Cc2ccc(O)cc2)NC(=O)[C@H](CO)NC(=O)[C@H](CC(N)=O)NC1=O` (cyclo(KNSYF)), the Kd [1] was 19.8 µM, the Kd [2] was 45 µM and the Activity [3] was “Active”.
With `CC(C)C[C@@H]1NC(=O)[C@H](C(C)C)N(C)C(=O)[C@@H](CC(C)C)NC(=O)[C@@H](Cc2cscn2)NC(=O)[C@@H](C(c2ccccc2)c2ccccc2)NC1=O` (cyclo(L[dDip][dAla(4-thiazolyl)][dL][NMeV])) the Activity [1] was “Active” and the solubility [4] was 200 µM (≈ 143 µg/mL).
`COc1cc([C@H]2Oc3cc([C@H]4Oc5cc(O)cc(O)c5C(=O)[C@@H]4O)ccc3O[C@@H]2CO)ccc1O` [SILYBIN A] showed a Kd [2] of 500 µM.
